Data published in patent US20140348819A1, “Methods of Treating Cancer” (Dana-Farber Cancer Institute, Inc., priority 2011, published 2014).

Tested on: six V600E BRAF melanoma cell lines
Experiment: Screening of recombinant RTK ligands for ability to confer resistance to BRAFi (PLX4720) or MEKi (PD184352) (Table 4)
Format: cell-based, human
Design: ability of recombinant RTK ligand to confer resistance / ability of recombinant RTK ligand to confer resistance (screening value): scale not given here
Method in brief: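 Resistance to BRAFi (PLX4720) or MEKi (PD184352) was tested in six V600E BRAF melanoma lines given one of 22 recombinant RTK ligands. For a subset of RTKs, activation was checked by high-throughput tyrosine kinase phosphorylation profiling and western blot.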

FGF1
ability of recombinant RTK ligand to confer resistance (A2058, PD184352 - 1 uM, ligand 0.4 ng/ml): 1.04
ability of recombinant RTK ligand to confer resistance (A2058, PD184352 - 1 uM, ligand 1.6 ng/ml): 1.05
ability of recombinant RTK ligand to confer resistance (A2058, PD184352 - 1 uM, ligand 6.25 ng/ml): 1.04
ability of recombinant RTK ligand to confer resistance (A2058, PD184352 - 1 uM, ligand 25 ng/ml): 1.12
ability of recombinant RTK ligand to confer resistance (A2058, PD184352 - 1 uM, ligand 100 ng/ml): 1.19
ability of recombinant RTK ligand to confer resistance (A2058, PLX4720 - 2 uM, ligand 0.4 ng/ml): 1.02
ability of recombinant RTK ligand to confer resistance (A2058, PLX4720 - 2 uM, ligand 1.6 ng/ml): 1.01
ability of recombinant RTK ligand to confer resistance (A2058, PLX4720 - 2 uM, ligand 6.25 ng/ml): 0.96
ability of recombinant RTK ligand to confer resistance (A2058, PLX4720 - 2 uM, ligand 25 ng/ml): 1.05
ability of recombinant RTK ligand to confer resistance (A2058, PLX4720 - 2 uM, ligand 100 ng/ml): 1.11
ability of recombinant RTK ligand to confer resistance (C32, PD184352 - 1 uM, ligand 0.4 ng/ml): 1.01
ability of recombinant RTK ligand to confer resistance (C32, PD184352 - 1 uM, ligand 1.6 ng/ml): 1.04
ability of recombinant RTK ligand to confer resistance (C32, PD184352 - 1 uM, ligand 6.25 ng/ml): 1.03
ability of recombinant RTK ligand to confer resistance (C32, PD184352 - 1 uM, ligand 25 ng/ml): 1.02
ability of recombinant RTK ligand to confer resistance (C32, PD184352 - 1 uM, ligand 100 ng/ml): 0.97
ability of recombinant RTK ligand to confer resistance (C32, PLX4720 - 2 uM, ligand 0.4 ng/ml): 1.11
ability of recombinant RTK ligand to confer resistance (C32, PLX4720 - 2 uM, ligand 1.6 ng/ml): 1.10
ability of recombinant RTK ligand to confer resistance (C32, PLX4720 - 2 uM, ligand 6.25 ng/ml): 1.08
ability of recombinant RTK ligand to confer resistance (C32, PLX4720 - 2 uM, ligand 25 ng/ml): 0.93
ability of recombinant RTK ligand to confer resistance (C32, PLX4720 - 2 uM, ligand 100 ng/ml): 1.00
ability of recombinant RTK ligand to confer resistance (Colo 829, PD184352 - 1 uM, ligand 0.4 ng/ml): 1.02
ability of recombinant RTK ligand to confer resistance (Colo 829, PD184352 - 1 uM, ligand 1.6 ng/ml): 1.11
ability of recombinant RTK ligand to confer resistance (Colo 829, PD184352 - 1 uM, ligand 6.25 ng/ml): 1.00
ability of recombinant RTK ligand to confer resistance (Colo 829, PD184352 - 1 uM, ligand 25 ng/ml): 1.08
ability of recombinant RTK ligand to confer resistance (Colo 829, PD184352 - 1 uM, ligand 100 ng/ml): 1.12
ability of recombinant RTK ligand to confer resistance (Colo 829, PLX4720 - 2 uM, ligand 0.4 ng/ml): 0.99
ability of recombinant RTK ligand to confer resistance (Colo 829, PLX4720 - 2 uM, ligand 1.6 ng/ml): 1.09
ability of recombinant RTK ligand to confer resistance (Colo 829, PLX4720 - 2 uM, ligand 6.25 ng/ml): 1.02
ability of recombinant RTK ligand to confer resistance (Colo 829, PLX4720 - 2 uM, ligand 25 ng/ml): 1.07
ability of recombinant RTK ligand to confer resistance (Colo 829, PLX4720 - 2 uM, ligand 100 ng/ml): 1.06
ability of recombinant RTK ligand to confer resistance (G-361, PD184352 - 1 uM, ligand 0.4 ng/ml): 0.99
ability of recombinant RTK ligand to confer resistance (G-361, PD184352 - 1 uM, ligand 1.6 ng/ml): 1.09
ability of recombinant RTK ligand to confer resistance (G-361, PD184352 - 1 uM, ligand 6.25 ng/ml): 0.99
ability of recombinant RTK ligand to confer resistance (G-361, PD184352 - 1 uM, ligand 25 ng/ml): 1.08
ability of recombinant RTK ligand to confer resistance (G-361, PD184352 - 1 uM, ligand 100 ng/ml): 1.04
ability of recombinant RTK ligand to confer resistance (G-361, PLX4720 - 2 uM, ligand 0.4 ng/ml): 0.96
ability of recombinant RTK ligand to confer resistance (G-361, PLX4720 - 2 uM, ligand 1.6 ng/ml): 0.95
ability of recombinant RTK ligand to confer resistance (G-361, PLX4720 - 2 uM, ligand 6.25 ng/ml): 0.92
ability of recombinant RTK ligand to confer resistance (G-361, PLX4720 - 2 uM, ligand 25 ng/ml): 0.89
ability of recombinant RTK ligand to confer resistance (G-361, PLX4720 - 2 uM, ligand 100 ng/ml): 1.08
ability of recombinant RTK ligand to confer resistance (SK-MEL-5, PD184352 - 1 uM, ligand 0.4 ng/ml): 0.98
ability of recombinant RTK ligand to confer resistance (SK-MEL-5, PD184352 - 1 uM, ligand 1.6 ng/ml): 1.07
ability of recombinant RTK ligand to confer resistance (SK-MEL-5, PD184352 - 1 uM, ligand 6.25 ng/ml): 1.14
ability of recombinant RTK ligand to confer resistance (SK-MEL-5, PD184352 - 1 uM, ligand 25 ng/ml): 1.17
ability of recombinant RTK ligand to confer resistance (SK-MEL-5, PD184352 - 1 uM, ligand 100 ng/ml): 1.36
ability of recombinant RTK ligand to confer resistance (SK-MEL-5, PLX4720 - 2 uM, ligand 0.4 ng/ml): 1.01
ability of recombinant RTK ligand to confer resistance (SK-MEL-5, PLX4720 - 2 uM, ligand 1.6 ng/ml): 1.12
ability of recombinant RTK ligand to confer resistance (SK-MEL-5, PLX4720 - 2 uM, ligand 6.25 ng/ml): 1.12
ability of recombinant RTK ligand to confer resistance (SK-MEL-5, PLX4720 - 2 uM, ligand 25 ng/ml): 1.09
ability of recombinant RTK ligand to confer resistance (SK-MEL-5, PLX4720 - 2 uM, ligand 100 ng/ml): 1.28
ability of recombinant RTK ligand to confer resistance (SK-MEL-28, PD184352 - 1 uM, ligand 0.4 ng/ml): 1.05
ability of recombinant RTK ligand to confer resistance (SK-MEL-28, PD184352 - 1 uM, ligand 1.6 ng/ml): 0.87
ability of recombinant RTK ligand to confer resistance (SK-MEL-28, PD184352 - 1 uM, ligand 6.25 ng/ml): 0.90
ability of recombinant RTK ligand to confer resistance (SK-MEL-28, PD184352 - 1 uM, ligand 25 ng/ml): 0.92
ability of recombinant RTK ligand to confer resistance (SK-MEL-28, PD184352 - 1 uM, ligand 100 ng/ml): 1.06
ability of recombinant RTK ligand to confer resistance (SK-MEL-28, PLX4720 - 2 uM, ligand 0.4 ng/ml): 1.00
ability of recombinant RTK ligand to confer resistance (SK-MEL-28, PLX4720 - 2 uM, ligand 1.6 ng/ml): 1.02
ability of recombinant RTK ligand to confer resistance (SK-MEL-28, PLX4720 - 2 uM, ligand 6.25 ng/ml): 1.10
ability of recombinant RTK ligand to confer resistance (SK-MEL-28, PLX4720 - 2 uM, ligand 25 ng/ml): 0.98
ability of recombinant RTK ligand to confer resistance (SK-MEL-28, PLX4720 - 2 uM, ligand 100 ng/ml): 1.08
